In patent US20100190710A1, “IL-23 RECEPTOR ANTAGONISTS AND USES THEREOF” (Valorisation HSJ, Societe en Commandite, priority 2007, published 2010):
Entries after “also recorded” stand apart in the source; their conditions may differ. Peptide text beside a SMILES is read from it.

Assays:
[1] = test system: PMA-induced dermatitis (ear); format: in vivo, CD-1 mice
From the text: FIGS. 10A and 10B are a series of images and a graph showing efficacy of topical anti-IL-23R peptides in treating PMA-induced dermatitis. PMA-induced dermatitis is often utilized as a model of chronic (and scaling) dermatitis, reminiscent of psoriatic dermatitis. […] FIG. 10B is a graph showing the differences in weight (mg) of ear punches with control ears untreated with PMA. […] FIGS. 11A to 11C are a series of images and graphs showing dose-response to topical administration of peptide 2309 in PMA-induced dermatitis. FIG. 11A is a photographic representation of dose-dependent effects of topical administration of peptide 2309 (mixed in PEG-400) on PMA-induced dermatitis in CD-1 mice. Concentrations of peptide 2309≧100 nM show significant efficacy.

IL-23 receptor [2] = molecular target: T1, IL-23 receptor (Homo sapiens, UniProt Q5VWK5); assay: IL-23-induced STAT3 phosphorylation in PMA-activated HL-60 monocytes (Western blot); format: cell-based; parameters: endogenous in cells; conditions: PMA-activated HL-60 human monocytes; peptide 1 μM, 30 min pre-incubation; IL-23 10 ng/ml, 15 min
T1 sequence (Q5VWK5 24-629): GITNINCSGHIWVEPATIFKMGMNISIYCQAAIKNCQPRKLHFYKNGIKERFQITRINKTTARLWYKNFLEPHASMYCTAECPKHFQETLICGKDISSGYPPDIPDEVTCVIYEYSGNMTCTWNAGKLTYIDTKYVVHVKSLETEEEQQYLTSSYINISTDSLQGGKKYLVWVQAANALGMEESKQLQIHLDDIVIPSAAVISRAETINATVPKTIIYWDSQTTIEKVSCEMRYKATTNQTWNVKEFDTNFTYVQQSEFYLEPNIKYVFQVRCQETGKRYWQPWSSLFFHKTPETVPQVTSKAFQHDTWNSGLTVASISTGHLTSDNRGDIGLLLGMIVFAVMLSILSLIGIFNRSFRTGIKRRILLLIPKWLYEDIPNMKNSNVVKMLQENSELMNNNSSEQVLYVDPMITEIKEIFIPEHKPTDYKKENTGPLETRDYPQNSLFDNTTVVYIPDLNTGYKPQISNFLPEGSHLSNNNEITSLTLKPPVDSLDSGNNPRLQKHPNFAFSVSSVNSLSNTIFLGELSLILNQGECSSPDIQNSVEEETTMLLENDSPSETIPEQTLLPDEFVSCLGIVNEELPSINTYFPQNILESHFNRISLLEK
Experimental: FIG. 2 is a graph showing the results of efficacy screening of peptides designed from the IL-23 receptor. HL-60 human monocytes were pre-incubated for 30 minutes with the particular peptides (1 μM) and stimulated for 15 minutes with IL-23 (10 ng/ml). Western Blot analysis of phosphorylated-STAT3 and total STAT3 was performed on cell lysates. Immunoblot densitometry was measured using ImagePro4+ software. […] FIGS. 3A and 3B are graphs showing inhibition of IL-23-induced STAT3 phosphorylation and TNFα generation. […] Western Blot analysis was performed on cell lysates, and immunoblot densitometry was measured using ImagePro4+ software. […] TNFα production was quantified by ELISA 24 hours after stimulation with IL-23 using the Quantikine ELISA Kit (R&D systems). […] D-peptides 2303, 2305, 2307 and 2309 (1 μM) inhibit IL-23-induced STAT3 phosphorylation in phorbol 12-myristate 13-acetate (PMA)-activated human monocytes (HL-60) (FIG. 2).

IL-23 receptor [3] = molecular target: T1, IL-23 receptor; assay: IL-23-induced TNFα production in PMA-activated HL-60 monocytes (ELISA); format: cell-based; parameters: endogenous in cells; conditions: IL-23 10 ng/ml, ELISA 24 hours after stimulation, read-out: Emax, inhibition of IL-23-induced TNF formation
Experimental: FIGS. 3A and 3B are graphs showing inhibition of IL-23-induced STAT3 phosphorylation and TNFα generation. […] Western Blot analysis was performed on cell lysates, and immunoblot densitometry was measured using ImagePro4+ software. […] TNFα production was quantified by ELISA 24 hours after stimulation with IL-23 using the Quantikine ELISA Kit (R&D systems).
D-peptides 2303, 2305, 2307 and 2309 (1 μM) inhibit IL-23-induced STAT3 phosphorylation in phorbol 12-myristate 13-acetate (PMA)-activated human monocytes (HL-60) (FIG. 2).

EC50 ([1]; mouse, in vivo): ~50 nM
transdermal penetration ([1]; mouse, in vivo): effective transdermal penetration
Emax (IL-23 receptor [3]): ~80%
SMILES: CSCC[C@@H](N)C(=O)N[C@H](CCC(=O)O)C(=O)N[C@H](CCC(=O)O)C(=O)N[C@H](CO)C(=O)N[C@H](CCCCN)C(=O)N[C@H](CCC(N)=O)C(=O)N[C@H](CC(C)C)C(=O)N[C@H](CCC(N)=O)C(=O)N[C@H](CC(C)C)C(=O)O [Peptide 2309, MEESKQLQL] (HELM PEPTIDE1{[dM].[dE].[dE].[dS].[dK].[dQ].[dL].[dQ].[dL]}$$$$V2.0; N-terminus and C-terminus assumed)
PMA-induced edema (weight of ear punches) ([1]; topical dose-response (FIG. 11B)): dose-dependent reduction in PMA-induced edema
capillary leak (Evan's blue technique) ([1]; topical dose-response (FIG. 11C)): diminished capillary leak
concentrations showing significant efficacy ([1]; topical in PEG-400 (FIG. 11A)): ≥ 100 nM
effect on IL-23-induced STAT3 phosphorylation (IL-23 receptor [2]): demonstrable efficacy; also recorded: inhibit; also recorded: remained capable of inhibiting
